Reference: ChEMBL document CHEMBL1201862, “PubChem BioAssay data set” (2004)
Calls of active or inactive are those of the source. Rule as the data show it, for most assays here: actives have a measured IC50 and inactives only a lower limit.

How the values were obtained:
Assay type in all cases: functional
[1] = target: Ras and Rab interactor 1/Tyrosine-protein kinase ABL1 (Homo sapiens, UniProt P00519+Q13671);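 also: biochemical TR-FRET dose-response test measuring inhibition of binding between Rin1 and Abl proteins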
[2] = target: T1, Sentrin-specific protease 8 (Homo sapiens, UniProt Q96LD8); experiment: SENP8 protease inhibitors, SAR follow-up, biochemical, luminescence (AID 504501)
T1 sequence (Q96LD8 whole entry): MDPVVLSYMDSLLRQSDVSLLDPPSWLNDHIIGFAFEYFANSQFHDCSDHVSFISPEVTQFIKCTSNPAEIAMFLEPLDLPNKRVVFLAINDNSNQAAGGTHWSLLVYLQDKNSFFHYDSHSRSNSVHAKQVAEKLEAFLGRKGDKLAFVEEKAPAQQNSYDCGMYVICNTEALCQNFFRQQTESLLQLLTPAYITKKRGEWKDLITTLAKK

[3] = target: T2, Caspase-3 (Homo sapiens, UniProt P42574); experiment: SAR Analysis of small molecule inhibitors of Sentrin-specific proteases (SENPs) using a Caspase-3 Selectivity assay. [Related pubchem assays (depositor defined):AID2540, AID2599, AID434973, AID489001]
T2 sequence (P42574 whole entry): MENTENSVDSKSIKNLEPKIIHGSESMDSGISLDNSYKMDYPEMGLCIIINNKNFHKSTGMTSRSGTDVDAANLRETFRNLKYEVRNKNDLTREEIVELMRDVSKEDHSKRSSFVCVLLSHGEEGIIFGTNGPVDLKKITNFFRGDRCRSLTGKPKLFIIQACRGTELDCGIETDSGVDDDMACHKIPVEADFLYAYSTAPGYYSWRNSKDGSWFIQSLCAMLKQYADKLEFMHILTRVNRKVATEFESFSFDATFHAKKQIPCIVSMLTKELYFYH

[4] = target: T1, Sentrin-specific protease 8
[5] = target: T3, Sentrin-specific protease 7 (Homo sapiens, UniProt Q9BQF6); experiment: SENP7 protease inhibitors, SAR follow-up, biochemical, luminescence (AID 504497)
T3 sequence (Q9BQF6 whole entry): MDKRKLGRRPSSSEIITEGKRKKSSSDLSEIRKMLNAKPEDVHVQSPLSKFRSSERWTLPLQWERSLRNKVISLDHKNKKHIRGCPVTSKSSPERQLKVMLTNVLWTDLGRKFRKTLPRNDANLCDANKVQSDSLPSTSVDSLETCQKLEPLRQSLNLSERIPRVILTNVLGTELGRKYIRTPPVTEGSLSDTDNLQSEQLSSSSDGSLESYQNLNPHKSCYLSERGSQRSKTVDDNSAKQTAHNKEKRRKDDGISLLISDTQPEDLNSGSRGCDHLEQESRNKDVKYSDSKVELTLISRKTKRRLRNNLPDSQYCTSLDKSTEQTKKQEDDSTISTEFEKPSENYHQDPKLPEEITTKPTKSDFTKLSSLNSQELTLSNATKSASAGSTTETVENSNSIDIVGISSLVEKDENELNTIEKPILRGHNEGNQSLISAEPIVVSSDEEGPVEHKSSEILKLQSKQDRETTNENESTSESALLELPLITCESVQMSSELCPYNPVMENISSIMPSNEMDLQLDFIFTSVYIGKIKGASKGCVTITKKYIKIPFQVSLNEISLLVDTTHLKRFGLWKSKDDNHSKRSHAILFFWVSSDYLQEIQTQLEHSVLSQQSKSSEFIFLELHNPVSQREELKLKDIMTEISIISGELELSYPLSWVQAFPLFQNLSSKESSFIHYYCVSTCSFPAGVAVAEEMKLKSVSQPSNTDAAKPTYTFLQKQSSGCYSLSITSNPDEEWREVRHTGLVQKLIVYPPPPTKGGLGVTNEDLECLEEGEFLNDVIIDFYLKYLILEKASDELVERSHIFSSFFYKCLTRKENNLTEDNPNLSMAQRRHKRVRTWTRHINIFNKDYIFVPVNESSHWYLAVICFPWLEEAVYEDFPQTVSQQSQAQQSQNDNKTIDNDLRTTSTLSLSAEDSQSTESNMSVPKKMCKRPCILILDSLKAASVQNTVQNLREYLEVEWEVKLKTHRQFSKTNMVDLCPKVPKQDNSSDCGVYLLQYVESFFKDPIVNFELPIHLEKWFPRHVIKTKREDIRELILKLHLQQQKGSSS

[6] = target: T4, Replicative DNA helicase DnaB (Mycobacterium tuberculosis, UniProt P9WMR3); experiment: DnaB intein splicing inhibitors, dose response, biochemical, cell-free fluorescence (AID 449749)
T4 sequence (P9WMR3 whole entry): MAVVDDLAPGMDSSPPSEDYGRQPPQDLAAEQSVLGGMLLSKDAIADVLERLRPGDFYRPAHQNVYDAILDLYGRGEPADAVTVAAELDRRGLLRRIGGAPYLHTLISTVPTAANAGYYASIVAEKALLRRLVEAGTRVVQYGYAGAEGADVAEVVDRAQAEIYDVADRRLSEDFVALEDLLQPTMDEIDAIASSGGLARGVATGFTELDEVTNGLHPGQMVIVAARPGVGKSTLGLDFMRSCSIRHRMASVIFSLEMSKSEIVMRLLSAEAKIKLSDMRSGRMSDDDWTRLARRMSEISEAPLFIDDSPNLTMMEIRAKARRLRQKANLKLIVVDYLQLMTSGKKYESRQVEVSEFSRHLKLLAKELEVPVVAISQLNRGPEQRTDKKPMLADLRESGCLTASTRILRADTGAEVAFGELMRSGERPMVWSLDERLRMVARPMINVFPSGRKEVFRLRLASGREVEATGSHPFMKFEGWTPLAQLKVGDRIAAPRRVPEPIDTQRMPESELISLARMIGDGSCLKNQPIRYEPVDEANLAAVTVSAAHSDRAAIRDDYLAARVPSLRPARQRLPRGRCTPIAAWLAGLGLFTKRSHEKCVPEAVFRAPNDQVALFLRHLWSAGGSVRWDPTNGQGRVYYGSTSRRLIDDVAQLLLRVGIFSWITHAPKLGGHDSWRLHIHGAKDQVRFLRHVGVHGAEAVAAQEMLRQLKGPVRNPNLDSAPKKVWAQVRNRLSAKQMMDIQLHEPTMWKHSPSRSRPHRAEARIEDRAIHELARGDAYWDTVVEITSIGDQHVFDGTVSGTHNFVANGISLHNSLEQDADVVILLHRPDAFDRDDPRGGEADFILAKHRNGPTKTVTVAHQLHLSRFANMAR

Ras and Rab interactor 1/Tyrosine-protein kinase ABL1, sequence (P00519 whole entry): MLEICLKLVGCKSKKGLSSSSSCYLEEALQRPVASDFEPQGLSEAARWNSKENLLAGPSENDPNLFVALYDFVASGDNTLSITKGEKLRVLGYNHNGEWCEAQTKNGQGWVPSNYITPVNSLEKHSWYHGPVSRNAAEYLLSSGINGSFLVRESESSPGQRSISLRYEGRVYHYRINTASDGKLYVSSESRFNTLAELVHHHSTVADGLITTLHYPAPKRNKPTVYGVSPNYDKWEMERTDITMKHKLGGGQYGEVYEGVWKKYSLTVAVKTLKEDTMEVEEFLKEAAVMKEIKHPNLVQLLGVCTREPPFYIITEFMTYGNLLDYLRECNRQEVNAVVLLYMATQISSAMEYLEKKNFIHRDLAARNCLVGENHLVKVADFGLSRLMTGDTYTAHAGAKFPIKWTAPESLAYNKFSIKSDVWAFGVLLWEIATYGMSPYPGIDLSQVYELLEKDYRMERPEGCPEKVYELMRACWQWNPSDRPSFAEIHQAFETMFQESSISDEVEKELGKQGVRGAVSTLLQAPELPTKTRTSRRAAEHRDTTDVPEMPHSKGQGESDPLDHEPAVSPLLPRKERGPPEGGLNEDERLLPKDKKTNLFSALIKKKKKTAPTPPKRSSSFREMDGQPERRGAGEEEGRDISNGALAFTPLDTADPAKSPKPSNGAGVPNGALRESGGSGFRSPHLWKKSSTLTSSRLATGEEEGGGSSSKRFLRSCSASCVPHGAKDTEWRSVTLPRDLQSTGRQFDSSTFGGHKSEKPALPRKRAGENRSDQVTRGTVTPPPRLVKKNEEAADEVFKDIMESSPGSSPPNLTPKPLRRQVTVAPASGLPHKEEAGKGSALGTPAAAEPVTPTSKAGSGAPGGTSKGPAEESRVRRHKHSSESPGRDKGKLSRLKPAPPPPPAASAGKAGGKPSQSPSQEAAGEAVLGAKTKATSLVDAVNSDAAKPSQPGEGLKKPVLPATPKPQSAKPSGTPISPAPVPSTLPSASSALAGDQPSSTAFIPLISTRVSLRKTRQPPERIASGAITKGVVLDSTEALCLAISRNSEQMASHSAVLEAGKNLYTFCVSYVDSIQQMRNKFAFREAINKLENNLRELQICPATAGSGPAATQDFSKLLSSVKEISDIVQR
Ras and Rab interactor 1/Tyrosine-protein kinase ABL1, sequence (Q13671 whole entry): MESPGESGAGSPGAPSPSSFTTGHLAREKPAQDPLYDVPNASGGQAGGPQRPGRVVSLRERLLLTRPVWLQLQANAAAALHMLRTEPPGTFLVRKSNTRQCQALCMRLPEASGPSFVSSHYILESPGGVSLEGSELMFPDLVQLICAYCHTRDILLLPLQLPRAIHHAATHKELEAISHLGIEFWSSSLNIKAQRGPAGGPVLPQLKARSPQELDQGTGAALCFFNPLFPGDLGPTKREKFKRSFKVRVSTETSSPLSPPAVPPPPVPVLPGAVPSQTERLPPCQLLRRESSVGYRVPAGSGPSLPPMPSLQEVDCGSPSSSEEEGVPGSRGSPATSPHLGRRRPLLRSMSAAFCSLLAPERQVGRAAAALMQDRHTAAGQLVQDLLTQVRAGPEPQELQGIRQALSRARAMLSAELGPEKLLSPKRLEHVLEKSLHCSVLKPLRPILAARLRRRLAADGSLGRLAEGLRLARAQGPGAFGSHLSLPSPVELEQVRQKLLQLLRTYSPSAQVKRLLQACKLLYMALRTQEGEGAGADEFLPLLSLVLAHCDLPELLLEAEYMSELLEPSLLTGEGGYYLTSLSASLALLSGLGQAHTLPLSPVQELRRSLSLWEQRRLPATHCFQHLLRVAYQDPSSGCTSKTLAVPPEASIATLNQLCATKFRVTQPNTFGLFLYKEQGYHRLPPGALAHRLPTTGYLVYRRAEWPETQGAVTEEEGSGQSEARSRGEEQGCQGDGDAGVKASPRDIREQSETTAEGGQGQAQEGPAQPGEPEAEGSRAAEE

Structure (SMILES): O=C(NN=c1c(=O)c2ccccc2c1=O)c1ccccc1
- IC50 [1]: > 73.5 µM (inactive)
- IC50 [2]: 19.8 µM (active)
- IC50 [3]: 51.8 µM (active)
- IC50 [4]: > 100 µM (inactive)
- IC50 [5]: 12 µM (active)
- AC50 [6]: 3.42 µM (active)
